Assay results as given in PMC7211203 (European Journal of Drug Metabolism and Pharmacokinetics, 2020).
“Also recorded” adds a separate entry of the source. Like-named read-outs stand apart in the source and are kept apart here.

Tests used:
[1] = assay type: in vivo, human; conditions: for tmax: median (minimum, maximum); for Vd/F: Vz/F
[2] = target: T1, CYP3A4 (Homo sapiens, UniProt P08684); assay type: in vivo; conditions: for Change in t1/2 when administered with lenvatinib: D1 and D14 vs D −3
[3] = target: T1, CYP3A4; conditions: 18 patients with solid tumors; cited from earlier work
[4] = tested on: CYP3A; conditions: open-label, fixed-sequence study in 16 cancer patients; cited from earlier work
[5] = target: T1, CYP3A4; conditions: 18 patients with solid tumors, before/after design; cited from earlier work
[6] = D −3, patients of comparison D1 vs D −3
[7] = D −3, patients of comparison D14 vs D −3
[8] = Day 1, with single dose of lenvatinib, mean (SD)
[9] = Day 14, with lenvatinib at steady state, mean (SD)
[10] = Day −3, midazolam alone, mean (SD)
[11] = D1 vs D −3 (single dose of lenvatinib 24 mg)
[12] = D14 vs D −3 (lenvatinib 24 mg at steady state)

T1 sequence (P08684 whole entry): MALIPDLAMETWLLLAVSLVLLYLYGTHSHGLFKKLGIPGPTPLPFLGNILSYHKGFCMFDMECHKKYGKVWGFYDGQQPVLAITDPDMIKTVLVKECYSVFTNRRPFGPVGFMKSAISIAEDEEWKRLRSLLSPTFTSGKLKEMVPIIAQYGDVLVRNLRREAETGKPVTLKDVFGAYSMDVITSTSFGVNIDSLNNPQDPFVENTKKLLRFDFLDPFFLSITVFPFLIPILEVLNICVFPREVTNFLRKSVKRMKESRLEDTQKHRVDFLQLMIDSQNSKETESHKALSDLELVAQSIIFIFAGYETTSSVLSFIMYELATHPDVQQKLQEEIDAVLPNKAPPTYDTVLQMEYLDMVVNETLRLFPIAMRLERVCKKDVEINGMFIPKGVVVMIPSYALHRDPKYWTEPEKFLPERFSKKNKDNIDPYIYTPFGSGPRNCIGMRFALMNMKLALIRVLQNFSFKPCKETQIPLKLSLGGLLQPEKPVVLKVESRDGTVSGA

OCc1ncc2n1-c1ccc(Cl)cc1C(c1ccccc1F)=NC2 [1′-OH midazolam, 1′-hydroxy-midazolam]
Plasma concentration, mean (standard deviation) ([1]; 0.5 h, D1 1 dose of lenvatinib and midazolam): 10.433 (11.8436) ng/mL
Plasma concentration, mean (standard deviation) ([1]; 0.5 h, D14 multiple doses of lenvatinib and 1 dose of midazolam): 8.048 (12.1629) ng/mL
Plasma concentration, mean (standard deviation) ([1]; 0.5 h, D −3 midazolam only): 7.929 (8.1952) ng/mL
Plasma concentration, mean (standard deviation) ([1]; 1 h, D1 1 dose of lenvatinib and midazolam): 9.230 (9.8222) ng/mL
Plasma concentration, mean (standard deviation) ([1]; 1 h, D14 multiple doses of lenvatinib and 1 dose of midazolam): 8.884 (8.9281) ng/mL
Plasma concentration, mean (standard deviation) ([1]; 1 h, D −3 midazolam only): 8.259 (6.9675) ng/mL
Plasma concentration, mean (standard deviation) ([1]; 1.5 h, D1 1 dose of lenvatinib and midazolam): 8.265 (9.0440) ng/mL
Plasma concentration, mean (standard deviation) ([1]; 1.5 h, D14 multiple doses of lenvatinib and 1 dose of midazolam): 7.314 (6.7286) ng/mL
Plasma concentration, mean (standard deviation) ([1]; 1.5 h, D −3 midazolam only): 7.307 (5.9056) ng/mL
Plasma concentration, mean (standard deviation) ([1]; 2 h, D1 1 dose of lenvatinib and midazolam): 6.921 (8.0144) ng/mL
Plasma concentration, mean (standard deviation) ([1]; 2 h, D14 multiple doses of lenvatinib and 1 dose of midazolam): 5.767 (5.0953) ng/mL
Plasma concentration, mean (standard deviation) ([1]; 2 h, D −3 midazolam only): 5.736 (4.1774) ng/mL
Plasma concentration, mean (standard deviation) ([1]; 3 h, D1 1 dose of lenvatinib and midazolam): 4.888 (7.3050) ng/mL
Plasma concentration, mean (standard deviation) ([1]; 3 h, D14 multiple doses of lenvatinib and 1 dose of midazolam): 4.027 (3.2372) ng/mL
Plasma concentration, mean (standard deviation) ([1]; 3 h, D −3 midazolam only): 3.698 (2.9719) ng/mL
Plasma concentration, mean (standard deviation) ([1]; 4 h, D1 1 dose of lenvatinib and midazolam): 3.395 (5.2011) ng/mL
Plasma concentration, mean (standard deviation) ([1]; 4 h, D14 multiple doses of lenvatinib and 1 dose of midazolam): 2.919 (2.1611) ng/mL
Plasma concentration, mean (standard deviation) ([1]; 4 h, D −3 midazolam only): 2.359 (1.9899) ng/mL
Plasma concentration, mean (standard deviation) ([1]; 6 h, D1 1 dose of lenvatinib and midazolam): 2.059 (2.3381) ng/mL
Plasma concentration, mean (standard deviation) ([1]; 6 h, D14 multiple doses of lenvatinib and 1 dose of midazolam): 1.773 (1.4213) ng/mL
Plasma concentration, mean (standard deviation) ([1]; 6 h, D −3 midazolam only): 1.447 (1.4379) ng/mL
Plasma concentration, mean (standard deviation) ([1]; 8 h, D1 1 dose of lenvatinib and midazolam): 1.132 (1.0593) ng/mL
Plasma concentration, mean (standard deviation) ([1]; 8 h, D14 multiple doses of lenvatinib and 1 dose of midazolam): 1.372 (1.2790) ng/mL
Plasma concentration, mean (standard deviation) ([1]; 8 h, D −3 midazolam only): 1.024 (0.9525) ng/mL
Plasma concentration, mean (standard deviation) ([1]; 10 h, D1 1 dose of lenvatinib and midazolam): 0.852 (0.7166) ng/mL
Plasma concentration, mean (standard deviation) ([1]; 10 h, D14 multiple doses of lenvatinib and 1 dose of midazolam): 1.055 (1.0511) ng/mL
Plasma concentration, mean (standard deviation) ([1]; 10 h, D −3 midazolam only): 0.767 (0.6376) ng/mL
Plasma concentration, mean (standard deviation) ([1]; 24 h, D1 1 dose of lenvatinib and midazolam): 0.186 (0.1472) ng/mL
Plasma concentration, mean (standard deviation) ([1]; 24 h, D14 multiple doses of lenvatinib and 1 dose of midazolam): 0.282 (0.1998) ng/mL
Plasma concentration, mean (standard deviation) ([1]; 24 h, D −3 midazolam only): 0.158 (0.1110) ng/mL
AUC0–24 geometric mean, lenvatinib + midazolam (test) ([1]; D1, comparison D1 vs D −3): 37.91 ng·h/mL
Cmax geometric mean, lenvatinib + midazolam (test) ([1]; D1, comparison D1 vs D −3): 9.54 ng/mL
AUC0–24 geometric mean, lenvatinib + midazolam (test) ([1]; D14, comparison D14 vs D −3): 36.93 ng·h/mL
Cmax geometric mean, lenvatinib + midazolam (test) ([1]; D14, comparison D14 vs D −3): 8.24 ng/mL
AUC0–24 geometric mean, midazolam (reference) [1, 6]: 33.84 ng·h/mL
Cmax geometric mean, midazolam (reference) [1, 6]: 9.04 ng/mL
AUC0–24 geometric mean, midazolam (reference) [1, 7]: 30.81 ng·h/mL
Cmax geometric mean, midazolam (reference) [1, 7]: 8.76 ng/mL
AUC0–24 ([1]; Day 1, midazolam with single dose of lenvatinib 24 mg, mean (SD), n = 28): 48.6 (47.8) ng × h/mL
Cmax [1, 8]: 12.7 (11.6) ng/mL
t1/2 [1, 8]: 5.48 (2.26) h
tmax ([1]; Day 1, with single dose of lenvatinib): 0.75 (0.25, 2.00) h
AUC0–24 ([1]; Day 14, midazolam with lenvatinib at steady state, mean (SD), n = 19): 41.3 (34.3) ng × h/mL
Cmax [1, 9]: 10.7 (11.6) ng/mL
t1/2 [1, 9]: 5.53 (1.99) h
tmax ([1]; Day 14, with lenvatinib at steady state): 0.77 (0.25, 1.50) h
AUC0–24 ([1]; Day −3, midazolam 4 mg oral alone, mean (SD), n = 29): 38.5 (26.5) ng × h/mL
Cmax [1, 10]: 11.0 (8.64) ng/mL
t1/2 [1, 10]: 5.58 (1.15) h
tmax ([1]; Day −3, midazolam alone): 0.75 (0.25, 2.02) h
Change in t1/2 when administered with lenvatinib [2]: no statistically significant change
Difference in median tmax ([2]; D1 vs D −3): 0.00 h
AUC0–24 geometric mean ratio (test/reference) [2, 11]: 1.120
Cmax geometric mean ratio (test/reference) [2, 11]: 1.055
Difference in median tmax ([2]; D14 vs D −3): 0.00 h
AUC0–24 geometric mean ratio (test/reference) [2, 12]: 1.199
Cmax geometric mean ratio (test/reference) [2, 12]: 0.940

COC[C@H](NC(=O)c1cnc(C)s1)C(=O)N[C@@H](COC)C(=O)N[C@@H](Cc1ccccc1)C(=O)[C@@]1(C)CO1 [Oprozomib, oprozomib]
CYP3A4 inhibition in patients (midazolam) [3]: clinically relevant inhibition was not seen

CO[C@H]1C[C@@H]2CC[C@@H](C)[C@@](O)(O2)C(=O)C(=O)N2CCCC[C@H]2C(=O)O[C@H]([C@H](C)C[C@@H]2CC[C@@H](OP(C)(C)=O)[C@H](OC)C2)CC(=O)[C@H](C)/C=C(\C)[C@@H](O)[C@@H](OC)C(=O)[C@H](C)C[C@H](C)/C=C/C=C/C=C/1C [Ridaforolimus, ridaforolimus]
Impact on CYP3A (midazolam probe) [4]: minimal inhibitory impact on CYP3A

CC(C)C[C@H](NC(=O)[C@H](CCc1ccccc1)NC(=O)CN1CCOCC1)C(=O)N[C@@H](Cc1ccccc1)C(=O)N[C@@H](CC(C)C)C(=O)[C@@]1(C)CO1 [carfilzomib]
Effect on the pharmacokinetics of midazolam [5]: No clinically significant effects

Cc1ncc2n1-c1ccc(Cl)cc1C(c1ccccc1F)=NC2 [midazolam]
Cmax geometric mean, lenvatinib + midazolam (test) ([1]; D14, comparison D14 vs D −3): 24.76 ng/mL
Cmax geometric mean, midazolam (reference) [1, 6]: 24.73 ng/mL
AUC0–24 geometric mean, midazolam (reference) [1, 7]: 88.30 ng·h/mL
Cmax geometric mean, midazolam (reference) [1, 7]: 24.10 ng/mL
Cmax [1, 10]: 26.5 (10.7) ng/mL
concentration at 1 h ([1]; human, plasma, oral, 4 mg, Plasma concentration, mean (standard deviation), 1 h, D −3 midazolam only): 19 ng/mL
concentration at 2 h ([1]; human, plasma, oral, 4 mg, Plasma concentration, mean (standard deviation), 2 h, D −3 midazolam only): 13.1 ng/mL
concentration at 3 h ([1]; human, plasma, oral, 4 mg, Plasma concentration, mean (standard deviation), 3 h, D −3 midazolam only): 8.78 ng/mL
concentration at 4 h ([1]; human, plasma, oral, 4 mg, Plasma concentration, mean (standard deviation), 4 h, D −3 midazolam only): 6.12 ng/mL
concentration at 6 h ([1]; human, plasma, oral, 4 mg, Plasma concentration, mean (standard deviation), 6 h, D −3 midazolam only): 4.19 ng/mL
concentration at 8 h ([1]; human, plasma, oral, 4 mg, Plasma concentration, mean (standard deviation), 8 h, D −3 midazolam only): 3.24 ng/mL
concentration at 10 h ([1]; human, plasma, oral, 4 mg, Plasma concentration, mean (standard deviation), 10 h, D −3 midazolam only): 2.51 ng/mL
concentration at 24 h ([1]; human, plasma, oral, 4 mg, Plasma concentration, mean (standard deviation), 24 h, D −3 midazolam only): 0.53 ng/mL
Vd/F ([1]; human, plasma, oral, 4 mg, Day −3, midazolam alone, mean (SD)): 382 L
half-life ([1]; human, plasma, oral, 4 mg, t1/2, Day −3, midazolam alone, mean (SD)): 5.87 h
AUC(0-t) ([1]; human, plasma, oral, AUC0–24, Day 14, midazolam with lenvatinib at steady state, mean (SD), n = 19): 117 ng·h/mL
Cmax ([1]; human, plasma, oral, Cmax, Day 1, with single dose of lenvatinib, mean (SD)): 24.8 ng/mL
Cmax ([1]; human, plasma, oral, Cmax, Day 14, with lenvatinib at steady state, mean (SD)): 28.3 ng/mL
concentration at 0.5 h ([1]; human, plasma, oral, Plasma concentration, mean (standard deviation), 0.5 h, D14 multiple doses of lenvatinib and 1 dose of midazolam): 23.7 ng/mL
concentration at 1 h ([1]; human, plasma, oral, Plasma concentration, mean (standard deviation), 1 h, D1 1 dose of lenvatinib and midazolam): 16.5 ng/mL
concentration at 1 h ([1]; human, plasma, oral, Plasma concentration, mean (standard deviation), 1 h, D14 multiple doses of lenvatinib and 1 dose of midazolam): 23.1 ng/mL
concentration at 1.5 h ([1]; human, plasma, oral, Plasma concentration, mean (standard deviation), 1.5 h, D14 multiple doses of lenvatinib and 1 dose of midazolam): 17.8 ng/mL
concentration at 2 h ([1]; human, plasma, oral, Plasma concentration, mean (standard deviation), 2 h, D1 1 dose of lenvatinib and midazolam): 11.3 ng/mL
concentration at 2 h ([1]; human, plasma, oral, Plasma concentration, mean (standard deviation), 2 h, D14 multiple doses of lenvatinib and 1 dose of midazolam): 13.9 ng/mL
concentration at 3 h ([1]; human, plasma, oral, Plasma concentration, mean (standard deviation), 3 h, D1 1 dose of lenvatinib and midazolam): 7.89 ng/mL
concentration at 3 h ([1]; human, plasma, oral, Plasma concentration, mean (standard deviation), 3 h, D14 multiple doses of lenvatinib and 1 dose of midazolam): 9.93 ng/mL
concentration at 4 h ([1]; human, plasma, oral, Plasma concentration, mean (standard deviation), 4 h, D1 1 dose of lenvatinib and midazolam): 5.67 ng/mL
concentration at 4 h ([1]; human, plasma, oral, Plasma concentration, mean (standard deviation), 4 h, D14 multiple doses of lenvatinib and 1 dose of midazolam): 7.58 ng/mL
concentration at 6 h ([1]; human, plasma, oral, Plasma concentration, mean (standard deviation), 6 h, D1 1 dose of lenvatinib and midazolam): 4.08 ng/mL
concentration at 6 h ([1]; human, plasma, oral, Plasma concentration, mean (standard deviation), 6 h, D14 multiple doses of lenvatinib and 1 dose of midazolam): 5.21 ng/mL
concentration at 8 h ([1]; human, plasma, oral, Plasma concentration, mean (standard deviation), 8 h, D1 1 dose of lenvatinib and midazolam): 2.96 ng/mL
concentration at 8 h ([1]; human, plasma, oral, Plasma concentration, mean (standard deviation), 8 h, D14 multiple doses of lenvatinib and 1 dose of midazolam): 4.05 ng/mL
concentration at 10 h ([1]; human, plasma, oral, Plasma concentration, mean (standard deviation), 10 h, D1 1 dose of lenvatinib and midazolam): 2.39 ng/mL
concentration at 10 h ([1]; human, plasma, oral, Plasma concentration, mean (standard deviation), 10 h, D14 multiple doses of lenvatinib and 1 dose of midazolam): 3.47 ng/mL
concentration at 24 h ([1]; human, plasma, oral, Plasma concentration, mean (standard deviation), 24 h, D1 1 dose of lenvatinib and midazolam): 0.628 ng/mL
concentration at 24 h ([1]; human, plasma, oral, Plasma concentration, mean (standard deviation), 24 h, D14 multiple doses of lenvatinib and 1 dose of midazolam): 1.25 ng/mL
Vd/F ([1]; human, plasma, oral, Day 1, with single dose of lenvatinib, mean (SD)): 481 L
Vd/F ([1]; human, plasma, oral, Day 14, with lenvatinib at steady state, mean (SD)): 544 L
half-life ([1]; human, plasma, oral, t1/2, Day 1, with single dose of lenvatinib, mean (SD)): 6.48 h
half-life ([1]; human, plasma, oral, t1/2, Day 14, with lenvatinib at steady state, mean (SD)): 6.76 h
tmax ([1]; human, plasma, oral, tmax, Day 1, with single dose of lenvatinib): 0.63 h
Change in t1/2 when administered with lenvatinib [2]: little change; also recorded: no statistically significant change
Difference in median tmax ([2]; D1 vs D −3): 0.00 h
Difference in median tmax ([2]; D14 vs D −3): 0.00 h
Change in CL/F and Vz/F over time ([2]; D −3, D1, D14): no statistically significant change
